Source: patent US9789089B2 (Gilead Sciences, Inc., priority 2013, dated 2017)
Read-outs that look alike come from different tables or passages of the source.

How the values were obtained:
HIV-IIIb = assay: Test A: Antiviral Assay in MT4 Cells; format: cell-based, HIV-1; conditions: read-out: % inhibition at 6 μM
Procedure: Test A: Antiviral Assay in MT4 Cells
(§1) For the antiviral assay, 40 μL of 1× test concentration of 3-fold serially diluted compound in culture medium with 10% FBS was added to each well of a 384-well plate (10 concentrations) in quadruplicate. MT-4 cells were next mixed with HIV-IIIb at an m.o.i of 0.003 for 1 hour, after which time 35 μL of virus/cell mixture (2000 cells) was immediately added to each well containing 40 μL of diluted compound. The plates were then incubated at 37° C. for 5 days. After 5 days of incubation, 25 μl of 2× concentrated CellTiter-Glo™ Reagent (catalog #G7571, Promega Biosciences, Inc., Madison, Wis.) was added to each well containing MT-4 cells. Cell lysis was carried out by incubating at room temperature for 10 min and then chemiluminescence was read.

[1] = Test B: Cytotoxicity assay; format: cell-based; conditions: human, uninfected MT-4 cells, same protocol as Test A, CellTiter-Glo
Procedure: as §1
Test B:Cytotoxicity assay
Compound cytotoxicity and the corresponding CC50 values was determined using the same protocol as described in the antiviral assay (Test A) except that uninfected cells were used.

[2] = Human immunodeficiency virus 1, IIIB, MT4, 120 h
[3] = Human immunodeficiency virus 1, MT4, 120 h, percent inhibition of virus-induced cell killing at 6 μM drug concentration, from the dose response curve, MT-4 cells infected with HIV-IIIb, 5 days

| SMILES | inhibition at 6 µM (HIV-IIIb; [2]) | CC50 at 5 days [1] | inhibition at 6 µM (HIV-IIIb; [3]) |
| --- | --- | --- | --- |
| Cc1ccccc1-c1scnc1C(Cc1cc(F)cc(F)c1)NC(=O)Cc1c[nH]c2ccc(O)cc12 (centres unmarked) [Compound 13E, N-(2-(3,5-difluorophenyl)-1-(5-(o-tolyl)thiazol-4-yl)ethyl)-2-(5-hydroxy-1H-indol-3-yl)acetamide] | 93% |  |  |
| Cc1cc2ncn(CC(=O)NC(Cc3cc(F)cc(F)c3)c3cnc(-c4ccc(Cl)cc4)o3)c2cc1C (centres unmarked) [Compound 23, N-(1-(2-(4-chlorophenyl)oxazol-5-yl)-2-(3,5-difluorophenyl)ethyl)-2-(5,6-dimethyl-1H-benzo[d]imidazol-1-yl)acetamide] | 0% | 12 µM |  |
| O=C(Cn1nc(C(F)(F)F)c2c1CCCC2)NC(Cc1cc(F)cc(F)c1)c1ncoc1-c1ccc(Cl)cc1 (centres unmarked) [Compound 36, N-(1-(5-(4-chlorophenyl)oxazol-4-yl)-2-(3,5-difluorophenyl)ethyl)-2-(3-(trifluoromethyl)-4,5,6,7-tetrahydro-1H-indazol-1-yl)acetamide] | 0% | 16.3 µM |  |
| O=C(Cc1c[nH]c2ccc(F)cc12)NC(Cc1cc(F)cc(F)c1)c1cnc(-c2ccc(Cl)cc2)o1 (centres unmarked) [Compound 19F, N-(1-(2-(4-chlorophenyl)oxazol-5-yl)-2-(3,5-difluorophenyl)ethyl)-2-(5-fluoro-1H-indol-3-yl)acetamide] |  | 9.14 µM | 0% |
| O=C(Cc1c[nH]c2ccc(F)cc12)N[C@@H](Cc1cc(F)cc(F)c1)c1nocc1-c1ccc(Cl)cc1 [Compound 25I, (S)—N-(1-(4-(4-chlorophenyl)isoxazol-3-yl)-2-(3,5-difluorophenyl)ethyl)-2-(5-fluoro-1H-indol-3-yl)acetamide] |  | 9.89 µM | 68% |
| O=C(Cc1c[nH]c2ccc(O)nc12)NC(Cc1cc(F)cc(F)c1)c1cnc(-c2ccc(Cl)cc2)o1 (centres unmarked) [Compound 22, N-(1-(2-(4-chlorophenyl)oxazol-5-yl)-2-(3,5-difluorophenyl)ethyl)-2-(5-hydroxy-1H-pyrrolo[3,2-b]pyridin-3-yl)acetamide] |  | 50.7 µM | 1% |
| O=C(Cc1c[nH]c2ccc(O)cc12)N[C@H](Cc1cc(F)cc(F)c1)c1nocc1-c1ccc(Cl)cc1 [Compound 28B, (R)—N-(1-(4-(4-chlorophenyl)isoxazol-3-yl)-2-(3,5-difluorophenyl)ethyl)-2-(5-hydroxy-1H-indol-3-yl)acetamide] | 3% |  |  |
| COc1ccc(-n2ccnc2[C@H](Cc2cc(F)cc(F)c2)NC(=O)Cc2c[nH]c3ccc(O)cc23)cc1 [Compound 7, (S)—N-(2-(3,5-difluorophenyl)-1-(1-(4-methoxyphenyl)-1H-imidazol-2-yl)ethyl)-2-(5-hydroxy-1H-indol-3-yl)acetamide] | 121% |  |  |
| COc1ccc(-n2ccnc2[C@@H](Cc2cc(F)cc(F)c2)NC(=O)Cc2c[nH]c3ccc(O)cc23)cc1 [Compound 8, (R)—N-(2-(3,5-difluorophenyl)-1-(1-(4-methoxyphenyl)-1H-imidazol-2-yl)ethyl)-2-(5-hydroxy-1H-indol-3-yl)acetamide] | 6% |  |  |
| Cc1cc2ncn(CC(=O)NC(Cc3cc(F)cc(F)c3)c3ncoc3-c3ccc(Cl)cc3)c2cc1C (centres unmarked) [Compound 33H, N-(1-(5-(4-chlorophenyl)oxazol-4-yl)-2-(3,5-difluorophenyl)ethyl)-2-(5,6-dimethyl-1H-benzo[d]imidazol-1-yl)acetamide] |  | 31.8 µM |  |
| Cn1cnc(C(Cc2cc(F)cc(F)c2)NC(=O)Cc2c[nH]c3ccc(O)cc23)c1-c1ccc(Cl)cc1 (centres unmarked) [Compound 31, N-(1-(5-(4-chlorophenyl)-1-methyl-1H-imidazol-4-yl)-2-(3,5-difluorophenyl)ethyl)-2-(5-hydroxy-1H-indol-3-yl)acetamide] | 75% |  |  |
| O=C(Cc1c[nH]c2ccc(O)cc12)N[C@@H](Cc1cc(F)cc(F)c1)c1nocc1-c1ccc(Cl)cc1 [Compound 26, (S)—N-(1-(4-(4-chlorophenyl)isoxazol-3-yl)-2-(3,5-difluorophenyl)ethyl)-2-(5-hydroxy-1H-indol-3-yl)acetamide] | 106% |  |  |
